Data set [1] deals with vascular endothelial growth factor (VEGF). The conditions noted are these: Jeong et al. 2011; cited from earlier work.
In data set [2] the test system is glucose transporter 1 (GLUT-1). The conditions noted are these: Jeong et al. 2011; cited from earlier work.
The test system of data set [3] is human osteosarcoma cells (U2OS). The conditions noted are these: proteome analysis (Kang et al. 2006); cited from earlier work.
Another data set relates to BIN1. As to conditions: U2OS cells, third most up-regulated protein (Kang et al. 2006); cited from earlier work.
The conditions of data set [4]: literature statement; cited from earlier work.
The test system of the next data set is splicing factor hnRNP L. The conditions noted are these: U2OS cells, most up-regulated protein (Kang et al. 2006); cited from earlier work.
The next data set deals with mammary carcinoma. As to conditions: intraperitoneal administration, murine mammary carcinoma (Nakajima et al., 2007); cited from earlier work.
Data set [5] deals with Smooth mutant Drosophila flies (sm homozygotes, that develop muscle dystrophy). In words: Survival of adult smooth mutant Drosophila flies treated with ascochlorin (FIG. 1). Format: in vivo. The conditions noted are these: adult sm homozygote flies on paper discs, 1 mM solution in 9% sucrose, 10% ethanol, throughout lifespan, vs vehicle alone. The protocol: Smooth mutant Drosophila flies (sm homozygotes, that develop muscle dystrophy) were maintained on paper discs soaked either with ascochlorin (Santa Cruz Biotechnology, 1 mM solution in 9% sucrose, 10% ethanol), or with vehicle alone. The treatment was maintained throughout the lifespan of the organism. Unaffected control siblings (sm heterozygotes) were maintained on vehicle. The number of dead flies was recorded daily, and percent survival was plotted as a function of time in days.

Results on three compounds are retold here after US9662314B2, “Compounds and methods for the treatment of muscular disease, and related screening methods” (Tufts Medical Center, Inc., priority 2011, dated 2017).

As for `COc1c(Cl)c(C)c(C=O)c(O)c1C/C=C(C)/C=C/[C@@]1(C)[C@H](C)CCC(=O)[C@@H]1C` [MAC, 4-O-methylascochlorin], in data set [1], the “expression of VEGF” value is recorded as “increases the expression”. Also, the “expression of GLUT-1” value in data set [2] was “increases the expression”.
As to `CC(/C=C/[C@@]1(C)[C@H](C)CCC(=O)[C@@H]1C)=C\Cc1c(O)c(Cl)c(C)c(C=O)c1O` [ascochlorin], the “increase in the levels of three proteins” value in data set [3] is given as at least 10 fold. Moreover, the BIN1 up-regulation in the data set with BIN1 is recorded as 10 ×. Moreover, the toxicity entry in data set [4] is given as “non-toxic”. In addition, the “hnRNP L up-regulation” value with splicing factor hnRNP L is reported as 12 ×. Further, in the data set with mammary carcinoma, the cancer growth result was “significantly suppressed cancer growth” and the survival result was “prolonged survival”. Further, the survival time entry in data set [5] was “prolonged survival time”.
In the case of `C/C(=C\Cc1c(O)c(Cl)c(C)c(C=O)c1O)CC/C=C(\C)[C@@H]1CC(=O)C(C)(C)O1` [ascofuranone], the toxicity result in data set [4] is “non-toxic”.
